This note sets out measurements from ChEMBL document CHEMBL1268903, “Biologically active biotin derivatives of schweinfurthin F” (Bioorg Med Chem Lett, 2010).

SMILES strings stand for the structures.

One experiment relates to SF-295. Description: Cytotoxicity against human SF295 cells. It is filed as functional, cell-based.
A further experiment deals with A549. Description: Cytotoxicity against human A549 cells. It counts as functional, cell-based.
A short description of experiment [1]: Cytotoxicity against human NCI60 cells. It counts as functional.

With `COCOc1cc(/C=C/c2cc3c(c(OC)c2)O[C@]2(C)CC[C@@H](O)C(C)(C)[C@H]2C3)cc(OC)c1C/C=C(\C)C/C=C/C(C)CNC(=O)CCCC[C@H]1SC[C@H]2NC(=O)N[C@H]21` (stereo partly drawn), the EC50 – broadly, the midpoint of the concentration-response curve – was 1100 nM with SF-295 and 5 µM in the experiment on A549.

For the compound `COCOc1cc(/C=C/c2cc3c(c(OC)c2)O[C@]2(C)CC[C@@H](O)C(C)(C)[C@H]2C3)cc(OC)c1C/C=C(\C)C/C=C/C(C)COC(=O)CCCC[C@H]1SC[C@H]2NC(=O)N[C@H]21` (stereo partly drawn), the results for the 50% effective concentration (EC50) in the experiment on SF-295 and in the experiment on A549 were 2700 nM and above 10 µM, respectively.

For the compound `COc1cc(/C=C/c2cc(O)c(C/C=C(\C)CCC=C(C)C)c(O)c2)cc2c1O[C@]1(C)CC[C@@H](O)C(C)(C)[C@H]1C2` [3-DEOXYSCHWEINFURTHIN B], in experiment [1], growth was halved (GI50) at 1000 nM. The compound further came in with a half-maximal effective concentration (EC50) in the experiment on A549 of 4.9 µM.

For `CC(C)=CCC/C(C)=C/Cc1c(O)cc(/C=C/c2cc(O)c3c(c2)C[C@@H]2C(C)(C)[C@H](O)[C@H](O)C[C@@]2(C)O3)cc1O` [SCHWEINFURTHIN A], the GI50 (commonly the concentration at which growth is held to half of that of the control) in experiment [1] was found to be 1000 nM.

Consider `COc1cc(/C=C/c2cc(O)c(CC=C(C)C)c(O)c2)cc2c1O[C@]1(C)CC[C@@H](O)C(C)(C)[C@H]1C2` [SCHWEINFURTHIN F], for which, in experiment [1], it took 1000 nM to inhibit growth by half (GI50).
